Experimental data from patent US5112872A, “Antispasmodic agent” (Taiko Pharmaceutical Co., Ltd., priority 1989, dated 1992).
Read-outs that look alike come from different tables or passages of the source.

Legend:
strips of the ileum = test: 100% inhibition of peristaltic motility of ileum strips, Pharmacological Test 1(b); set-up: species or system guinea pig (female Hartley); conditions: for IC100: Cavia porcellus, read-out: IC100 (dose causing 100% inhibition of the motility of the strip)
Description: (b) Experiments on the inhibition of peristaltic motility of intestinal strips were carried out in the same manner as Experiment (a) except that guaiacol, creosol, cresol, phenol and xylenol, all of which are components of creosote, were respectively used in lieu of creosote.

in vivo = conditions: rat, po

| Molecule | antispasmodic activity (inhibition of intestinal motility), in words (strips of the ileum) | IC100 (strips of the ileum; strips of the ileum) | LD50 (in vivo) | IC100 (strips of the ileum) | IC100 (dose causing 100% inhibition of the motility of the strip) (strips of the ileum; strips of the ileum) |
| --- | --- | --- | --- | --- | --- |
| COc1cc(C)ccc1O [Creosol, creosol] | antispasmodic activity comparable to that of creosote | 100 µg/mL |  |  |  |
| COc1ccccc1O [Guaiacol, guaiacol] | antispasmodic activity comparable to that of creosote | 100 µg/mL | 725 mg/kg |  |  |
| Oc1ccccc1 [Phenol, phenol] | antispasmodic activity comparable to that of creosote |  | 530 mg/kg | 100 µg/mL |  |
| Cc1cccc(O)c1 [m-Cresol] |  |  | 2020 mg/kg |  |  |
| Cc1ccccc1O [o-Cresol] |  |  | 1350 mg/kg |  |  |
| Cc1ccc(O)cc1 [p-Cresol] |  |  | 1800 mg/kg |  |  |
| cresol | antispasmodic activity comparable to that of creosote |  |  |  | 0.0001 g/mL |
| xylenol | antispasmodic activity comparable to that of creosote |  |  |  | 0.0001 g/mL |
